Series [1] can be described thus: CCClick: 37% aq formaldehyde (5 mM, 5 eq) bridges the two exocyclic methylene carbons of a Fischer base dimer (two C-C bonds), then hemin (1 eq)/air oxidative dehydrogenation, one pot; Al2O3 column. To be noted: the molecule shown is the open-chain precursor, DMF, 1.0 mM, 37.0 °C, 12.0 h.
Series [2] in a line: CCClick: formaldehyde (10 mM) bridges the two exocyclic methylene carbons of a Fischer base dimer (Knoevenagel dehydration cyclization, two C-C bonds), then hemin (1 mM)/air oxidative dehydrogenation to cyclic trimethine cyanine. The note with it: the molecule shown is the open-chain precursor, DMF, 37.0 °C, 12.0 h.

SMILES strings stand for the structures.

Compound `C=C1N(CCCCCCCCCCCCN2C(=C)C(C)(C)c3c2ccc2ccccc32)c2ccc3ccccc3c2C1(C)C` [FB9 -> CY-9] yielded a ring closure, isolated yield in series [1] (19-membered ring) of 44%. Besides, the ring closure, conversion by HPLC in series [2] (19-membered ring) was 77%.

The compound `C=C1N(CCCCCCN2C(=C)C(C)(C)c3c2ccc2ccccc32)c2ccc3ccccc3c2C1(C)C` [FB1 -> CY-1] showed a ring closure, isolated yield in series [1] (13-membered ring) of 62%. The ring closure, conversion by HPLC in series [2] (13-membered ring) turned out to be 90%.

In turn, `C=C1N(CCCCCCN2C(=C)C(C)(C)c3c2ccc2ccccc32)c2ccc(OCCCCCC[P+](c3ccccc3)(c3ccccc3)c3ccccc3)cc2C1(C)C.[I-]` [FB2 -> CY-2] displayed a ring closure, isolated yield in series [1] (13-membered ring) of 57%. The same compound returned a ring closure, conversion by HPLC in series [2] (13-membered ring) of 90%.

In turn, `C=C1N(CCCCCCCCCCCCCCCCCCN2C(=C)C(C)(C)c3ccccc32)c2ccccc2C1(C)C` [FB7 -> CY-7] had a ring closure, isolated yield in series [1] (25-membered ring) of 22%. Besides, the ring closure, conversion by HPLC in series [2] (25-membered ring) was 24%.

For `C=C1N(CCCCCCN2C(=C)C(C)(C)c3c2ccc2ccccc32)c2ccccc2C1(C)C` [FB3 -> CY-3], the ring closure, isolated yield in series [1] (13-membered ring) stood at 35%. In series [2] (13-membered ring), the ring closure, conversion by HPLC was 48%.

In series [1] (13-membered ring), `C=C1N(CCCCCCN2C(=C)C(C)(C)c3ccccc32)c2ccccc2C1(C)C` [FB5 -> CY-5] yielded a ring closure, isolated yield of 26%. Besides, the ring closure, conversion by HPLC in series [2] (13-membered ring) is 31%.

Turning to `C=C1N(CCOCCOCCN2C(=C)C(C)(C)c3c2ccc2ccccc32)c2ccc3ccccc3c2C1(C)C` [FB8 -> CY-8], the ring closure, isolated yield in series [1] (15-membered ring) turned out to be 16%. Further, the ring closure, conversion by HPLC in series [2] (15-membered ring) was 34%.

In turn, `C=C1N(CCCCCCN2C(=C)C(C)(C)c3cc(OC)ccc32)c2ccc(OC)cc2C1(C)C` [FB4 -> CY-4] showed a ring closure, isolated yield in series [1] (13-membered ring) of 40%. Also, the ring closure, conversion by HPLC in series [2] (13-membered ring) was determined as 85%.

In turn, `C=C1N(CCCCCCCCCCCCN2C(=C)C(C)(C)c3ccccc32)c2ccccc2C1(C)C` [FB6 -> CY-6] registered a ring closure, isolated yield in series [1] (19-membered ring) of 29%. Moreover, in series [2] (19-membered ring), the ring closure, conversion by HPLC worked out at 31%.

The values are drawn from article PMC12666538.
